Read-outs that look alike come from different tables or passages of the source.
B1: C1-INH: a physiological inhibitor (protein, UniProt P05155 23-500, looked up)
Plasma protease C1 inhibitor: NPNATSSSSQDPESLQDRGEGKVATTVISKMLFVEPILEVSSLPTTNSTTNSATKITANTTDEPTTQPTTEPTTQPTIQPTQPTTQLPTDSPTQPTTGSFCPGPVTLCSDLESHSTEAVLGDALVDFSLKLYHAFSAMKKVETNMAFSPFSIASLLTQVLLGAGENTKTNLESILSYPKDFTCVHQALKGFTTKGVTSVSQIFHSPDLAIRDTFVNASRTLYSSSPRVLSNNSDANLELINTWVAKNTNNKISRLLDSLPSDTRLVLLNAIYLSAKWKTTFDPKKTRMEPFHFKNSVIKVPMMNSKKYPVAHFIDQTLKAKVGQLQLSHNLSLVILVPQNLKHRLEDMEQALSPSVFKAIMEKLEMSKFQPTLLTLPRIKVTTSQDMLSIMEKLEFFDFSYDLNLCGLTEDPDLQVSAMQHQTVLELTETGVEAAAASAISVARTLLVFEVQQPFLFVLWDQQHKFPVFMGRVYDPRA

Tests used:
[1] = molecular target: T1, Human plasma kallikrein (PK) (Homo sapiens, UniProt P03952); assay: Inhibition of human plasma kallikrein amidolytic activity (H-D-Pro-Phe-Arg-pNA cleavage, A405); format: biochemical
T1 construct: purchased Haemtech Technologies (Essex Junction, Vt.)
T1 sequence (P03952 391-638 limits assumed): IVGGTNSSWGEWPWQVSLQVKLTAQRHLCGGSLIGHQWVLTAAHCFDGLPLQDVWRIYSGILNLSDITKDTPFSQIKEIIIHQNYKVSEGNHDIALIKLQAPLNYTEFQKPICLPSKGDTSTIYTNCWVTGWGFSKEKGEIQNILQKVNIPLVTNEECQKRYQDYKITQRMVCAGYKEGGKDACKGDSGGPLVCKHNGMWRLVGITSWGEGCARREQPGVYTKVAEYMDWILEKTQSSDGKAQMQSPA
T1 sequence (P03952 20-390 partner limits assumed): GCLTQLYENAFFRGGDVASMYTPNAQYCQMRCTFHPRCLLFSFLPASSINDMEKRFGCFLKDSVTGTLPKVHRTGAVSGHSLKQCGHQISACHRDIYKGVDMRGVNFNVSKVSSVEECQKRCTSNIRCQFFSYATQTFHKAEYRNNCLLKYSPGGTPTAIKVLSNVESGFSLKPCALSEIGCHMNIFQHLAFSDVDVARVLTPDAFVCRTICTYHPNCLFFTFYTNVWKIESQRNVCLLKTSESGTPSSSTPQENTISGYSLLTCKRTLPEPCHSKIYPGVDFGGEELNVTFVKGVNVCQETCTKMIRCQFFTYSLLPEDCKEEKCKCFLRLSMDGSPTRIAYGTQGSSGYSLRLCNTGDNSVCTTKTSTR
Procedure: Human plasma kallikrein (PK) was obtained from Haemtech Technologies (Essex Junction, Vt.). The enzymatic activity of PK was assayed using the synthetic peptide substrate H-D-Pro-Phe-Arg-pNA (Bachem, Inc., Switzerland) with the cleavage of the substrate by the enzyme resulting in an increase in A405, measured using a Molecular Devices Vmax Kinetic Microplate Reader. The uninhibited (control) activity of PK was determined by adding 190 μl of PK solution (1 nM in 0.05 M HEPES, pH 7.5, 0.01% Triton X-100) to 10 μl of H-D-Pro-Phe-Arg-pNA (2 mM in DMSO) in individual microtiter plate wells, mixed immediately by shaking, and the rate of increase in A405 determined over 120-180 sec. In parallel, compounds of the present invention were mixed in separate wells with the synthetic substrate to attain final concentrations of between 0.01-10 μM in the final 200 μl reaction mixture, and the reaction initiated by the addition of 190 μl of the PK solution.
(§1) The highest concentration of either compound tested was 10 μM.

FXa = FXa (Homo sapiens, UniProt P00742); assay: Specificity profile: amidolytic activity with synthetic substrate; format: biochemical; settings: highest concentration tested 10 μM
FXa, sequence (P00742 235-488 limits assumed): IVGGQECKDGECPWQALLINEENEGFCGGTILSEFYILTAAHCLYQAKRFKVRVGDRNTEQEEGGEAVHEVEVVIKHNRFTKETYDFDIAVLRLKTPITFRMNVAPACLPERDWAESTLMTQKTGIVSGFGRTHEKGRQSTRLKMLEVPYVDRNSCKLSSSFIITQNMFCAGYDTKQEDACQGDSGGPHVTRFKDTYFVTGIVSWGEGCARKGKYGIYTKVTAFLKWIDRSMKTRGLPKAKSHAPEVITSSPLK
FXa, sequence (P00742 41-179 partner limits assumed): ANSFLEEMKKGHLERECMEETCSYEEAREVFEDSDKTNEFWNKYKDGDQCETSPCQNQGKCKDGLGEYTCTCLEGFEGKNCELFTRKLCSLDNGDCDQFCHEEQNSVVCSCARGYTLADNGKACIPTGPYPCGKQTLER
Procedure: as §1

Plasmin = molecular target: T2, Plasmin (Homo sapiens, UniProt P00747); assay: as above; format: biochemical; settings: highest concentration tested 10 μM
T2 construct: agents that lead to the generation of active plasmin from plasminogen
T2 sequence (P00747 581-810 limits assumed, species assumed): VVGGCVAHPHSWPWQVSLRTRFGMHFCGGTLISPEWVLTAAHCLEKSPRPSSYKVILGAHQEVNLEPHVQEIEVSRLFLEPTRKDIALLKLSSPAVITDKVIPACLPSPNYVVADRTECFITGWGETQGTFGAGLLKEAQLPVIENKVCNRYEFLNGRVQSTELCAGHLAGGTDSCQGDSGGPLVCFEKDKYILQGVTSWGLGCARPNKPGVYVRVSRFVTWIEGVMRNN
T2 sequence (P00747 97-580 partner limits assumed, species assumed): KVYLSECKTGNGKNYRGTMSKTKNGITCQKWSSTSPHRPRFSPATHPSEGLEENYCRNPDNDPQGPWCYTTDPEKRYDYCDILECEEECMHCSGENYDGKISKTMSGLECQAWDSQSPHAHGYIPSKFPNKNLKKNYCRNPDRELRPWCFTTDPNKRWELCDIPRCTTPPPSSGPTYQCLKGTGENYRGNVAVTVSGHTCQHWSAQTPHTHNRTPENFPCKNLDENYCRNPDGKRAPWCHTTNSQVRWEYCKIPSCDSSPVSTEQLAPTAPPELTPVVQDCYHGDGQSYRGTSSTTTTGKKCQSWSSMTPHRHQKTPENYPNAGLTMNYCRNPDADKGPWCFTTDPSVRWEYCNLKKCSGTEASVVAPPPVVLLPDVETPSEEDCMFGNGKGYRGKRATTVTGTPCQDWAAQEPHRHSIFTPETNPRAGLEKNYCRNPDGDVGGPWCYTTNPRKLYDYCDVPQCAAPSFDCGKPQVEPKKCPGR
Procedure: as §1

Thrombin = Thrombin (Homo sapiens, UniProt P00734); assay: as above; format: biochemical; settings: highest concentration tested 10 μM
Procedure: as §1

FXIIa = molecular target: T3, FXIIa (Homo sapiens, UniProt P00748); assay: as above; format: biochemical; settings: highest concentration tested 10 μM
T3 sequence (P00748 373-615 limits assumed): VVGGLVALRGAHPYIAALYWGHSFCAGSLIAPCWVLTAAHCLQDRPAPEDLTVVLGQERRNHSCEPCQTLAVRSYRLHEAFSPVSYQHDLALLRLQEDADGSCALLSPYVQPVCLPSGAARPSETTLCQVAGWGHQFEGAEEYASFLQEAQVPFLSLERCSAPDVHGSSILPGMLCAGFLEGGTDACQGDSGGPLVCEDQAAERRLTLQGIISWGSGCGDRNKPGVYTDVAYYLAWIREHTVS
Procedure: as §1

FXIa = FXIa (Homo sapiens, UniProt P03951); assay: as above; format: biochemical; settings: highest concentration tested 10 μM
FXIa, sequence (P03951 388-625 limits assumed): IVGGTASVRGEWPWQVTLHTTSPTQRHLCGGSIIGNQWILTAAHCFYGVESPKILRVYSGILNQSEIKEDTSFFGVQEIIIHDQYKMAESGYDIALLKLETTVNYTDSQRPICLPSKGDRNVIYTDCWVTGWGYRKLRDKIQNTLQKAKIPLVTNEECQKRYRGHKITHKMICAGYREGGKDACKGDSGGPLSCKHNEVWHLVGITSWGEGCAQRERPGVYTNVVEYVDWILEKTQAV
FXIa, sequence (P03951 19-387 partner limits assumed): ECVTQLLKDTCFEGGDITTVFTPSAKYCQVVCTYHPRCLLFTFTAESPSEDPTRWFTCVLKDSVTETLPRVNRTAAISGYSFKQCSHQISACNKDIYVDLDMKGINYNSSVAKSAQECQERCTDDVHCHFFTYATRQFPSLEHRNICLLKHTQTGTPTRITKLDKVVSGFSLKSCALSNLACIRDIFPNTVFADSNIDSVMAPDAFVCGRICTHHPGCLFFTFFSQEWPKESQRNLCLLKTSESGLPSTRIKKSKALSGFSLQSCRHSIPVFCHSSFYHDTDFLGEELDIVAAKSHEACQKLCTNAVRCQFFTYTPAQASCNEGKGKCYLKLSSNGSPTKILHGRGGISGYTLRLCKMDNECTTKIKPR
Procedure: as §1

[2] = test system: plasmin-activated coagulation in plasma; assay: Plasmin-activated coagulation of plasma (plasmin + 6.25% Actin FS), time to coagulation; set-up: species or system human; settings: for prolongs time to coagulation: normal plasma, 200 nM plasmin
Procedure: In the clotting paradigm utilized in Example 3, plasma is mixed 1:1 with commercially formulated Actin FS. Thus, 50% (v/v) Actin FS is the maximum amount of activator that can be added while maintaining the amount of plasma constant at 50% of the incubation mixture. Since the clotting time in normal plasma is dependent on the amount of Actin FS present in the incubation mixture, these conditions would by definition lead to the shortest time to coagulation mediated by the intrinsic pathway in this paradigm. Lowering the amount of contact activator leads to a decrease in the amount of PK activated, thus reducing the amount of thrombin generated and slowing the time to coagulation (data not shown). Therefore, in order to determine whether addition of exogenous plasmin (mimicking a fibrinolytic setting) can shorten time to coagulation, the amount of Actin FS reagent added to the plasma (kept constant at 50% of the final incubation mixture) was lowered so as to attain 6.25% (final v/v).
This provides direct evidence that plasmin can have a thrombogenic effect when added to plasma in the presence of a small amount of contact activator.
The role for PK was established by evaluating deficiencies in PK, as well as by using two specific inhibitors of the enzymes. In order to determine whether blocking PK via a specific monoclonal antibody (MAb) would also be effective in inhibiting coagulation in either of the two paradigms described here, and thus provide additional validation for the invention, MAb 13G11, which has been previously characterized as being specific for PK (Veloso et al, (1987) Blood, 70, 1053-1062), was tested in each of the coagulation paradigms described in Examples 2 and 3. MAb 13G11 (obtained from GeneTex, San Antonio, Tex.) was added at a final concentration of 0.036 mg/ml in the 50% plasma—50% activator mix in each paradigm. This calculates to an approximately 2-fold molar excess over the amount of PK that would be present in the plasma—activator mixture, based on the literature reference of Veloso et al, (1987), Blood, 70, 1053-1062. Control samples were treated with 0.036 mg/ml of an isotype-matched control IgG1 (also obtained from GeneTex). When plasma was activated using 50% Actin FS (FIG. 5), MAb 13G11 prolonged time to coagulation by 100% (45% of the maximal effect obtained with PK-deficient plasma), and, when plasma was activated using 200 nM plasmin+6.25% Actin FS (FIG. 6), prolonged time to coagulation by 32% (40% of the maximal effect obtained with PK-deficient plasma).

patients with HAE = settings: in vivo; cited from earlier work
rat models of arthritis = settings: in vivo; cited from earlier work
mouse model of MCAO = settings: in vivo; cited from earlier work
[3] = test system: LPS or bacterial induced sepsis in animals; settings: in vivo; cited from earlier work
sepsis patients = settings: in vivo; cited from earlier work
[4] = apparent inhibition constant, 1 nM PK, pH 7.5, read-out: PK Kiapp
[5] = purified human PK, highest concentration tested 10 μM, read-out: Ki PK

Molecule	Ki [1, 4] [nM]	Ki [1, 5] [nM]	Ki (FXa) [µM]	Ki (Plasmin) [µM]	Ki (Thrombin) [µM]	Ki (FXIIa) [µM]	Ki (FXIa) [µM]	also measured
N=C(N)c1ccc(CNC(=O)c2cnn(Cc3ccccc3)c2)cc1 [ASP-440, 1-Benzyl-1H-pyrazole-4-carboxylic acid 4-carbamimidoyl-benzylamide]	310	90	> 10	> 10	> 10	> 10	> 10	prolongs time to coagulation ([2]; compound 10 μM): 36%
Cc1cc(C(=O)NCc2ccc(C(=N)N)cc2)c(C)n1Cc1ccncc1 [ASP-465, 2,5-Dimethyl-1-pyridin-4-ylmethyl-1H-pyrrole-3-carboxylic acid 4-carbamimidoyl-benzylamide]	80	30	> 10	> 10	> 10	> 10	> 10	potency (Ki) towards PK relative to ASP-440 ([1]; ratio of Ki values): 3 fold; block of the plasmin-induced shortening of time to coagulation attributable to PK ([2]; 10 μM): almost completely blocks; prolongs time to coagulation ([2]; compound 3.3 or 10 μM): 36-75%; potency towards inhibiting plasmin-activated coagulation relative to ASP-440 ([2]; same prolongation at 3.3 μM as ASP-440 at 10 μM): 3 fold
NC(N)=NCCC[C@@H](N)C(=O)N[C@@H](CCCN=C(N)N)C(=O)N1CCC[C@H]1C(=O)N1C[C@H](O)C[C@H]1C(=O)NCC(=O)N[C@@H](Cc1cccs1)C(=O)N[C@@H](CO)C(=O)N1Cc2ccccc2C[C@@H]1C(=O)N1[C@H](C(=O)N[C@@H](CCCN=C(N)N)C(=O)O)C[C@@H]2CCCC[C@@H]21 [Icatibant]	–	–	–	–	–	–	–	treating HAE (patients with HAE): effective
Cl.NCC1CCC(C(=O)N[C@@H](Cc2ccccc2)C(=O)Nc2ccc(CC(=O)O)cc2)CC1 (stereo partly drawn) [PKSI-527]	–	–	–	–	–	–	–	joint swelling (rat models of arthritis): reduce
B1	–	–	–	–	–	–	–	infarct size (mouse model of MCAO): reduced; vascular permeability in multiple organs and lesions [3]: reduce; clinical outcome in sepsis patients (sepsis patients): Clinical improvement

— patent publication US20080038276A1, “INHIBITORS OF PLASMA KALLIKREIN” (Activesite Pharmaceuticals, Inc., priority 2006, published 2008)
